Among the test systems are A549 NSCLC; HCT-116 colon; KM12 colon; OVCAR-5 ovarian; OVCAR-8 ovarian; RXF 393 renal; SR leukemia; TK-10 renal; U251 CNS; UO-31 renal.
Test in all cases: NCI-60 cell line screen, 48 h

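These data come from cells grown in 96-well plates and exposed to compound for 48 hours at five concentrations. GI50: concentration for 50% inhibition of growth. TGI denotes the concentration required for complete inhibition of growth.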

On to `Cc1c(C(=O)/C=C/c2cccc3ccccc23)[n+](=O)c2ccccc2n1[O-]`, for which the TGI in the assay with A549 NSCLC came out at 35 µM; in the assay on HCT-116 colon it was 18.8 µM; in the assay with KM12 colon, 27.1 µM; with OVCAR-5 ovarian it was 28.5 µM; with OVCAR-8 ovarian, 24.9 µM; in the assay on RXF 393 renal, 21.9 µM. In addition, the TGI with SR leukemia was 38.2 µM; in the assay with TK-10 renal, 34.6 µM; in the assay on U251 CNS, 29.1 µM; in the assay on UO-31 renal, 31.2 µM.
Take `N#Cc1cnn2ccn(C3OC(COC(=O)c4ccccc4)C(OC(=O)c4ccccc4)C3OC(=O)c3ccccc3)c12` (stereo not given): the TGI in the assay with A549 NSCLC is over 21.5 µM; with HCT-116 colon, over 21.5 µM; in the assay with KM12 colon it was 21.5 µM; in the assay with OVCAR-5 ovarian, over 21.5 µM; with OVCAR-8 ovarian, over 46.4 µM; with RXF 393 renal, over 21.5 µM. For the same compound, the TGI in the assay on SR leukemia is over 31.6 µM; in the assay on TK-10 renal, over 31.6 µM; in the assay on U251 CNS it was over 21.5 µM; in the assay with UO-31 renal, over 21.5 µM.
On to `CC(=O)c1ccc(N(/C=C/C(=O)C(F)(F)F)CC(=O)c2ccc(Cl)c(Cl)c2)cc1`, for which the GI50 was 14.2 µM in the assay on A549 NSCLC; 13.4 µM in the assay with HCT-116 colon; 12.8 µM with KM12 colon; 18.6 µM in the assay on OVCAR-5 ovarian; 16.1 µM in the assay on OVCAR-8 ovarian; 13.9 µM with RXF 393 renal. Besides, the GI50 is 3.59 µM in the assay on SR leukemia, 15.8 µM with TK-10 renal, 14 µM in the assay on U251 CNS and 16.5 µM in the assay with UO-31 renal. Further, the TGI was determined as 33.5 µM in the assay on A549 NSCLC; 26.2 µM in the assay with HCT-116 colon; 27.1 µM in the assay on KM12 colon; 35.9 µM with OVCAR-5 ovarian; 31.4 µM with OVCAR-8 ovarian; 30.4 µM with RXF 393 renal. Besides, the TGI in the assay with SR leukemia came to 19.3 µM; with TK-10 renal, 32.8 µM; with U251 CNS, 27.7 µM; with UO-31 renal it was 30.5 µM.
With `O=C(O)Cc1c[nH]c2ccc(F)cc12`, the TGI in the assay on A549 NSCLC, in the assay with HCT-116 colon, in the assay with KM12 colon, with OVCAR-5 ovarian, with OVCAR-8 ovarian and in the assay with RXF 393 renal was over 100 µM in each case. Further, the TGI with SR leukemia, with TK-10 renal, with U251 CNS and with UO-31 renal was over 100 µM throughout.
`NS(=O)(=O)c1ccc(-n2nc(-c3ccc(Br)cc3)ccc2=O)cc1`: the GI50 in the assay with A549 NSCLC, with HCT-116 colon, in the assay on KM12 colon, with OVCAR-5 ovarian, in the assay on OVCAR-8 ovarian and with RXF 393 renal was over 10 µM throughout. For the same compound, the GI50 in the assay with SR leukemia was 8.85 µM; in the assay with TK-10 renal it was over 10 µM; with U251 CNS it was over 10 µM; with UO-31 renal it was over 10 µM. Besides, the TGI in the assay on A549 NSCLC, in the assay with HCT-116 colon, in the assay on KM12 colon, with OVCAR-5 ovarian, in the assay on OVCAR-8 ovarian and in the assay with RXF 393 renal was over 10 µM throughout. Also, the TGI in the assay with SR leukemia, in the assay on TK-10 renal, in the assay on U251 CNS and with UO-31 renal was over 10 µM throughout.
For the compound `O=C(Cc1ccc(/C=C/C(=O)c2ncc[nH]2)cc1)Nc1ccc(Cl)cc1`, the GI50 with A549 NSCLC is 6.9 µM; in the assay with HCT-116 colon it was 0.848 µM; in the assay with KM12 colon, 1.3 µM; with OVCAR-5 ovarian, 3.3 µM; in the assay with OVCAR-8 ovarian, 3.65 µM; in the assay on RXF 393 renal it was 3.05 µM. The GI50 was 0.798 µM with SR leukemia, 5.41 µM in the assay with TK-10 renal, 1.02 µM with U251 CNS and 1.69 µM in the assay on UO-31 renal. The TGI in the assay on A549 NSCLC was over 25 µM; with HCT-116 colon it was 3.41 µM; in the assay on KM12 colon it was 5.23 µM; in the assay on OVCAR-5 ovarian, 7.78 µM; with OVCAR-8 ovarian, 16 µM; in the assay on RXF 393 renal, 6.93 µM. For the same compound, the TGI in the assay with SR leukemia is over 25 µM; in the assay on TK-10 renal it was 13.9 µM; with U251 CNS it was 3.49 µM; in the assay on UO-31 renal it was 5.11 µM.
For `O=C1c2ccccc2C(=O)c2c1ccc1[nH]c(CCl)nc21`, the GI50 with A549 NSCLC was 2.81 µM; with HCT-116 colon, 1.85 µM; in the assay on KM12 colon, 3.14 µM; in the assay with OVCAR-5 ovarian, 10.2 µM; in the assay on OVCAR-8 ovarian, 3.68 µM; in the assay with RXF 393 renal, 1.86 µM. Moreover, the GI50 with SR leukemia is 2.25 µM; in the assay with TK-10 renal, 2.91 µM; with U251 CNS, 2.21 µM; in the assay with UO-31 renal, 2.72 µM. In addition, the TGI with A549 NSCLC was 10.2 µM; in the assay on HCT-116 colon it was 4.7 µM; in the assay on KM12 colon it was 10.8 µM; in the assay on OVCAR-5 ovarian, 24.5 µM; in the assay with OVCAR-8 ovarian, 15.7 µM; in the assay with RXF 393 renal it was 6.17 µM. Moreover, the TGI in the assay on SR leukemia came out at 13.8 µM; in the assay with TK-10 renal, 9.79 µM; in the assay on U251 CNS it was 6.56 µM; with UO-31 renal it was 9.22 µM.
Regarding `C/C(=N\NC(N)=S)c1ccc(C)cc1C`, the TGI is over 100 µM in the assay with A549 NSCLC; over 100 µM with HCT-116 colon; over 100 µM with KM12 colon; 94.1 µM in the assay with OVCAR-5 ovarian; over 100 µM in the assay with OVCAR-8 ovarian; 75.2 µM in the assay on RXF 393 renal. Further, the TGI with SR leukemia, in the assay on TK-10 renal, in the assay with U251 CNS and with UO-31 renal was over 100 µM each time.
`CC1=C2[C@@H](CC1)[C@]1(C)O[C@@](C(C)C)(C[C@H]1OC(=O)[C@H](C)O)[C@H]2OC(=O)/C=C/c1ccccc1`: the GI50 in the assay on A549 NSCLC was 12.5 µM; in the assay on HCT-116 colon, 13.4 µM; in the assay on KM12 colon, 14.8 µM; with OVCAR-5 ovarian, 17.7 µM; with OVCAR-8 ovarian it was 0.451 µM; with RXF 393 renal, 0.111 µM. Moreover, the GI50 in the assay on SR leukemia was 10.3 µM; in the assay on TK-10 renal, 16.3 µM; in the assay with U251 CNS it was 14.2 µM; with UO-31 renal, 1.01 µM. Also, the TGI in the assay with A549 NSCLC was determined as 28.9 µM; with HCT-116 colon it was 29.2 µM; in the assay on KM12 colon, 33 µM; with OVCAR-5 ovarian it was 36.2 µM; in the assay with OVCAR-8 ovarian it was 16.6 µM; in the assay with RXF 393 renal, 2.41 µM. The TGI in the assay with SR leukemia stood at 37.5 µM; in the assay on TK-10 renal, 32 µM; in the assay with U251 CNS, 28 µM; in the assay on UO-31 renal, 18.7 µM.

For the origin of these results see PubChem BioAssay (NCI).
